This note sets out measurements from PMC6718442, “11β-Hydroxysteroid dehydrogenases control access of 7β,27-dihydroxycholesterol to retinoid-related orphan receptor γ” (Journal of Lipid Research, 2019).

One experiment has as its target T1, RORγ (Homo sapiens, UniProt P51449).
T1 sequence (P51449 1-518): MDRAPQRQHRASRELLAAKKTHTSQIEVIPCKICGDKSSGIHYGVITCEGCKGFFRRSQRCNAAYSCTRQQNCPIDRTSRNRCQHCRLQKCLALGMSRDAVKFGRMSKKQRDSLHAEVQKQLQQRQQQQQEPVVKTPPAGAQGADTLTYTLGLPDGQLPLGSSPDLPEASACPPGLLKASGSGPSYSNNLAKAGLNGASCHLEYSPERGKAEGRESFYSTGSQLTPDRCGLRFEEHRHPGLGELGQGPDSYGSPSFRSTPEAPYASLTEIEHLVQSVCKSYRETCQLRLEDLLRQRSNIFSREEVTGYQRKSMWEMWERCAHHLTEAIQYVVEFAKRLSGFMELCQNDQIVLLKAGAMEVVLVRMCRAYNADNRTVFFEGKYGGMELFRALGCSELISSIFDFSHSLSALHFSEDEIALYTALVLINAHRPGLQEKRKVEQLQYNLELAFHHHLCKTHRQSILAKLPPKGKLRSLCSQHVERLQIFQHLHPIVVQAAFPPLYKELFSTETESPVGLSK
In words: RORγ reporter gene assay in doxycycline-inducible RORγ CHO Tet-on cells transfected with 11β-HSD1/H6PDH, 11β-HSD2 or pcDNA3. Type of experiment: cell-based. Set-up: only weakly by 7k27OHC when full-length receptors are considered [([31]), present study]; expressed in transfected cells. As for the experimental part:
Doxycycline-inducible RORγ CHO Tet-on cells were transfected with 11β-HSD1/H6PDH, 11β-HSD2. or pcDNA3 using the electroporation method according to the manufacturer’s protocol (Neon™ transfection system; Invitrogen). Briefly, the cells […]). Three electric pulses of 1,620 V and 10 ms were delivered to the cells using a 100 μl gold tip. Then, the cells (20,000 cells per well) were seeded in 96-well plates using culture medium without antibiotics and incubated for 16 h. The medium was replaced with medium containing charcoal-dextran stripped FBS for 1.5 h before treating the cells with different concentrations of oxysterols. After 6 h, 1.25 μM of the inverse agonist SR2211 was added to the treatment for another 2 h. To induce ROR expression, the cells were additionally subjected to 1 μM doxycycline for a further 16 h. The cells were lysed in 20 μl Tropix lysis solution supplemented with 0.5 mM dithiothreitol. RORγ-mediated activation of the luciferase reporter was measured in 10 μl lysate by adding 100 μl of D-luciferin-firefly substrate solution. Data (mean ± SD) were obtained from at least three independent experiments.
On the technique in general: In a reporter assay the amount or activity of a reporter protein is the signal.

The next experiment has as its target T2, 11β-HSD2 (Homo sapiens, UniProt P80365).
T2 construct: expressed in transfected cells
T2 sequence (P80365 1-405): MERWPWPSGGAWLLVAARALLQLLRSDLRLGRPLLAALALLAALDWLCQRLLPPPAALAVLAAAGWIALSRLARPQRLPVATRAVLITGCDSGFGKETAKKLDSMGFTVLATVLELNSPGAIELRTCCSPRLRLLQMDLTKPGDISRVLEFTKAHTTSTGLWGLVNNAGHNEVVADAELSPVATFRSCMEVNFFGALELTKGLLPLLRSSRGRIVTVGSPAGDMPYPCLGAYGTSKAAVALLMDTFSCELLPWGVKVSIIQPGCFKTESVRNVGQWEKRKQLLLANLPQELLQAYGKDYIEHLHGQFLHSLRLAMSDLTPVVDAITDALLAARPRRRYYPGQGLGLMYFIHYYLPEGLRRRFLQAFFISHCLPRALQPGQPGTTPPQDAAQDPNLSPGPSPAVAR
In words: Inhibition of 11β-HSD2-dependent oxidation of cortisol in HEK-293 cell lysates. The conditions noted are these: for IC50: human enzyme, 50 nM cortisol, 10 min, 37°C, read-out: IC50, 11β-HSD2-dependent conversion of cortisol to cortisone. It is filed as biochemical. The protocol:
11β-HSD1 and 11β-HSD2 enzyme activities were assessed in lysates of HEK-293 cells stably expressing the respective enzyme as reported earlier ([40]). Briefly, 11β-HSD1-dependent oxoreductase activity was determined by the incubation of lysates with 200 nM of radiolabeled cortisone, 500 μM of NADPH, and the test substance or vehicle for 10 min at 37°C. 11β-HSD2-dependent oxidation of cortisol was measured instead by the addition of 50 nM of radiolabeled cortisol and 500 μM of NAD^+. The enzymatic reaction was stopped by introducing an excess amount of unlabeled cortisone and cortisol (1:1, 2 mM unlabeled each, in methanol). Cortisone and cortisol were separated using TLC and a chloroform and methanol (9:1, v/v) mixture. The bands were detected under UV light, scraped off the plate, and metabolism of the radiolabeled substrate was then evaluated by scintillation counting and the substrate conversion determined and compared with the control sample. Data (mean ± SD) were normalized to the control (DMSO) sample and obtained from at least three independent experiments.

[1] abbreviates: 11β-HSD2 expressing RORγ Tet-on cells.

Each structure is given as a SMILES string.

Take `C[C@@H](CO)CCC[C@@H](C)[C@H]1CC[C@H]2[C@@H]3[C@H](O)C=C4C[C@@H](O)CC[C@]4(C)[C@H]3CC[C@]12C` [7α27OHC]: at RORγ (only control plasmid expressed, data not shown), the “Effect on RORγ reporter (in words)” value is reported as “same weak concentration-dependent effect as 7k27OHC”. The “Inhibition of human 11β-HSD2 (in words)” value at 11β-HSD2 (not shown) was “did not inhibit”.

Regarding `CC(CO)CCC[C@@H](C)[C@H]1CC[C@H]2[C@@H]3C(=O)C=C4C[C@@H](O)CC[C@]4(C)[C@H]3CC[C@]12C` (stereo partly shown) [7k27OHC, 7-keto,27-hydroxycholesterol], the “Reversal of the inhibitory effect of SR2211 on RORγ reporter (in words)” value on RORγ (setting [1]) is “weak response”; at RORγ (coexpression of RORγ with 11β-HSD1) it was “capable of reversing the inhibitory effect of the RORγ antagonist, SR2211, in the same manner as 7β27OHC”. Also, on 11β-HSD2, the concentration for half-maximal inhibition (IC50) (commonly the midpoint of a concentration-inhibition curve) is 15 ± 1 nM.

Regarding `CC(CO)CCC[C@@H](C)[C@H]1CC[C@H]2[C@@H]3[C@@H](O)C=C4C[C@@H](O)CC[C@]4(C)[C@H]3CC[C@]12C` (stereo partly drawn) [7β27OHC, 7β,27-dihydroxycholesterol], the “Reversal of the inhibitory effect of SR2211 on RORγ reporter (in words)” value on RORγ (setting [1]) is reported as “could not restore RORγ activity”. Also, on 11β-HSD2, the concentration for half-maximal inhibition (IC50) came out at 11 ± 2 nM.
